Test results taken from PMC9742833.
Counter-ions that a name gives are not always drawn.

What was measured:
[1] = from 36.1 to 59.2 g of khat chewed, mean ± SD; cited from earlier work
CYP2A6 [2] = target: T1, CYP2A6 (Homo sapiens, UniProt P11509); test: Vivid CYP450 fluorescence assay, reversible inhibition
T1 sequence (P11509 1-494): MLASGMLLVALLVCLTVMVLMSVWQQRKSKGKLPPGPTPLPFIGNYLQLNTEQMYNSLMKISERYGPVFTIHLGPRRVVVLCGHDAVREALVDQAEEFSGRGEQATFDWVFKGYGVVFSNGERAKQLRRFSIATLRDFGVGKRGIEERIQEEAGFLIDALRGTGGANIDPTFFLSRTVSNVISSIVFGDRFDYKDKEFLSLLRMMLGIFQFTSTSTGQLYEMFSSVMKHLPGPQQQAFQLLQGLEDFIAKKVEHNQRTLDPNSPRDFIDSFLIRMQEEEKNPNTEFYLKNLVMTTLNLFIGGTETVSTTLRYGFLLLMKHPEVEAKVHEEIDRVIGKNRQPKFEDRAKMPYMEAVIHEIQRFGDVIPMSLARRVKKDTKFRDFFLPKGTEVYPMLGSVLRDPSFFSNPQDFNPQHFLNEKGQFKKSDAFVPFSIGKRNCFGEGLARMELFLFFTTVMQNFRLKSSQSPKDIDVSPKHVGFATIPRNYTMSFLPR

CYP2B6 [3] = target: T2, CYP2B6 (Homo sapiens, UniProt P20813); test: as above
T2 sequence (P20813 1-491): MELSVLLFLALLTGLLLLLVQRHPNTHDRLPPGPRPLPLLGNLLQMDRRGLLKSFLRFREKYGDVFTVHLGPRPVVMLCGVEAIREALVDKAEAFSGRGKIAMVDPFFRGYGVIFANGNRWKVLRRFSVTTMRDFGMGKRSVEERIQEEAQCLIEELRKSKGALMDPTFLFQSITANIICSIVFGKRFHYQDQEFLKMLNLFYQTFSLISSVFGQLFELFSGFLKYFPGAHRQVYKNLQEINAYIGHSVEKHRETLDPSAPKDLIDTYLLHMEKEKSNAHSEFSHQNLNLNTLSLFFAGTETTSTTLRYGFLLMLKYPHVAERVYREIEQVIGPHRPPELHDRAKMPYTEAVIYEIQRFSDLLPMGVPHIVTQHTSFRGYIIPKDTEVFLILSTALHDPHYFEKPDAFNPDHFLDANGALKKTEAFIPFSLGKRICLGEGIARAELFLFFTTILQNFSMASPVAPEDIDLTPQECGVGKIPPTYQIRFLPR

CYP2C8 [4] = test: as above; details: CYP2C8, substrate DBOMF, cathinone 0 to 1000 µM
CYP2D6 = details: human CYP2D6, in vitro; cited from earlier work
CYP1A2 [5] = target: T3, CYP1A2 (Homo sapiens, UniProt P05177); test: Vivid CYP450 fluorescence assay, reversible inhibition
T3 sequence (P05177 2-516 limits assumed): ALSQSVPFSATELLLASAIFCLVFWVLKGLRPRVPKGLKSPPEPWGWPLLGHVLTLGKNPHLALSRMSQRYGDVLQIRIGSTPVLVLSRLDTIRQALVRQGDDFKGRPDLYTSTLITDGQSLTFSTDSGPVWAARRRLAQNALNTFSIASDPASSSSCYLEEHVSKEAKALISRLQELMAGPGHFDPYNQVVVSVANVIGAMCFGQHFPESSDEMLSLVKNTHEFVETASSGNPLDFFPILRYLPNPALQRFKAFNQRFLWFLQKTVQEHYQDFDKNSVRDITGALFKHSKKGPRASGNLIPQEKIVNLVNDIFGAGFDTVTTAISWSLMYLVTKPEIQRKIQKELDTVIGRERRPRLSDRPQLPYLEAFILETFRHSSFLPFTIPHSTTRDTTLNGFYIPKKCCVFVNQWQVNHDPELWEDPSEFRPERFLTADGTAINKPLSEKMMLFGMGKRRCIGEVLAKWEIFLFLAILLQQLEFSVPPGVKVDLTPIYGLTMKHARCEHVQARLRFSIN

CYP3A4 = details: human CYP3A4, in vitro; cited from earlier work
CYP2C19 [6] = target: T4, CYP2C19 (Homo sapiens, UniProt P33261); test: Vivid CYP450 fluorescence assay, reversible inhibition
CYP2E1 [7] = target: T5, CYP2E1 (Homo sapiens, UniProt P05181); test: as above
[8] = cited from earlier work
CYP2J2 [9] = target: T6, CYP2J2 (Homo sapiens, UniProt P51589); test: Vivid CYP450 fluorescence assay, reversible inhibition
T6 sequence (P51589 1-502): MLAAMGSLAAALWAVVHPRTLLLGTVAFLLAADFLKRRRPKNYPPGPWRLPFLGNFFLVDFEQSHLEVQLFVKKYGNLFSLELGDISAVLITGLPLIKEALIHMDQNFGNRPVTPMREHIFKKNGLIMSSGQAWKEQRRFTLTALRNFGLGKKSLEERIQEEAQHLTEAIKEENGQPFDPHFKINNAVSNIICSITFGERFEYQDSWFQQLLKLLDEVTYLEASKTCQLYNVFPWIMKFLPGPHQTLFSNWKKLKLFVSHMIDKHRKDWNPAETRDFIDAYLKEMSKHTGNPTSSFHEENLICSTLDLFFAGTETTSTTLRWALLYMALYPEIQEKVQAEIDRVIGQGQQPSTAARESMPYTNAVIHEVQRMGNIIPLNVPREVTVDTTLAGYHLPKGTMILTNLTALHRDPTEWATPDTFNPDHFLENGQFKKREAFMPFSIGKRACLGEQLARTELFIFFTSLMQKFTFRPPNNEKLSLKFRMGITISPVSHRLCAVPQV

CYP2B6 [10] = target: T2, CYP2B6; test: Time-dependent inhibition (IC50 shift, NADPH pre-incubation); assay type: biochemical; set-up: purchased Life Technologies
Method: (§1) The procedure followed was similar to that used for screening of CYP reversible inhibition as mentioned above but with slight modifications. The master premix was added with NADP^+ to produce NADPH before the pre-incubation. The mixture was incubated for 30 min with shaking under similar range of concentrations of cathinone as mentioned above for IC50 determination. […] The IC50 shift was derived by calculating ratios of IC50 obtained from pre-incubation with and without NADPH. An IC50 shift ratio of more than 2 signifies irreversible time-dependent inhibition.

CYP1A2 [11] = target: T3, CYP1A2; test: as above; assay type: biochemical; set-up: purchased Life Technologies
Method: as §1

CYP3A5 [12] = target: T7, CYP3A5 (Homo sapiens, UniProt P20815); test: as above; assay type: biochemical; set-up: purchased Life Technologies
Method: as §1

CYP2J2 [13] = target: T6, CYP2J2; test: as above; assay type: biochemical; set-up: purchased Life Technologies
Method: as §1

CYP2A6 [14] = target: T1, CYP2A6; test: as above; assay type: biochemical; set-up: purchased Life Technologies
Method: as §1

CYP2C19 [15] = target: T4, CYP2C19; test: as above; assay type: biochemical; set-up: purchased Life Technologies
Method: as §1

CYP2E1 [16] = target: T5, CYP2E1; test: as above; assay type: biochemical; set-up: purchased Life Technologies
Method: as §1

CYP2C9 = details: human CYP2C9, in vitro; cited from earlier work
CYP2C8 [17] = system: T8, CYP2C8; test: Time-dependent inhibition (IC50 shift, NADPH pre-incubation); assay type: biochemical, human; details: CYP2C8 (stated for all 8 CYPs)
T8 construct: purchased Life Technologies
Method: as §1

[18] = cited from earlier work; remark: listed apart in the source
CYP3A5 [19] = target: T7, CYP3A5; test: Vivid CYP450 fluorescence assay, reversible inhibition

T7 sequence (P20815 whole entry): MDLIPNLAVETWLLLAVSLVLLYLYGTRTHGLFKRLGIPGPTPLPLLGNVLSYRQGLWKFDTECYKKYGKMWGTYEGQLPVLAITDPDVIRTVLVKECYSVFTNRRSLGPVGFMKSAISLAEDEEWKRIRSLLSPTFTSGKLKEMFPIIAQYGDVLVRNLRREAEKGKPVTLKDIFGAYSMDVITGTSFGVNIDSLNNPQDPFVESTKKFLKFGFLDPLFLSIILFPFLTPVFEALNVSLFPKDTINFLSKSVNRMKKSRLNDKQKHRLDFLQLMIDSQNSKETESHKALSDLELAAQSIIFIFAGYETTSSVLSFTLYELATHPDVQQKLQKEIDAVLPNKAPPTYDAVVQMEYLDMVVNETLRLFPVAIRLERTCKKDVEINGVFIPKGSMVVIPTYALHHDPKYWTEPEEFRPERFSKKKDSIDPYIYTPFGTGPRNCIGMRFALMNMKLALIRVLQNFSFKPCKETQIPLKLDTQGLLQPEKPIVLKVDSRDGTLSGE
T5 sequence (P05181 whole entry): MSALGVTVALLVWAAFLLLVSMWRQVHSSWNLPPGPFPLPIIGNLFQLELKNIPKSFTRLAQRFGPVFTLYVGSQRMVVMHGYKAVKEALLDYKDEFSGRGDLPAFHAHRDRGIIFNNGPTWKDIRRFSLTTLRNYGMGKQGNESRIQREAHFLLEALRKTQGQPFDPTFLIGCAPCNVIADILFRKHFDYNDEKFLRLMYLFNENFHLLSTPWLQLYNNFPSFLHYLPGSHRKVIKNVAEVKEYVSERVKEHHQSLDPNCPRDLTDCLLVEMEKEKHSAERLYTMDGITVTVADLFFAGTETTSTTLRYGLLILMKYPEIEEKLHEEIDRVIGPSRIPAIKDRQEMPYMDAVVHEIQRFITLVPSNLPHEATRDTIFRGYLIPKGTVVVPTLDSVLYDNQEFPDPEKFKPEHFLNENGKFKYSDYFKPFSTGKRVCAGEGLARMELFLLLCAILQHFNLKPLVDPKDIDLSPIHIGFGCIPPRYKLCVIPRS
T4 sequence (P33261 whole entry): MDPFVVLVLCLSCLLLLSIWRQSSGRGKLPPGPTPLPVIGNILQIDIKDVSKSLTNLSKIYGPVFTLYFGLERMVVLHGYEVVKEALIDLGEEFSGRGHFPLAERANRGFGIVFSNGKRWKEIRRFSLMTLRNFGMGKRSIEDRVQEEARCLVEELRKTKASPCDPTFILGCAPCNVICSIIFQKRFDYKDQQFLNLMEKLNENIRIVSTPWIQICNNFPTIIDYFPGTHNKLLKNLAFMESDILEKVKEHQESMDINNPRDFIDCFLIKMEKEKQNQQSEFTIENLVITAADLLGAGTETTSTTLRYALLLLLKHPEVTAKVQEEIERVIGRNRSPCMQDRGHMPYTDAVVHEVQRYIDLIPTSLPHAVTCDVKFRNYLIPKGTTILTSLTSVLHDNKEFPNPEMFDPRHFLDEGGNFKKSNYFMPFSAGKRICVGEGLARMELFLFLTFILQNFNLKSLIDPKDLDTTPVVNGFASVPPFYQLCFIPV

Q: Which results are given for C[C@H](N)[C@@H](O)c1ccccc1 [cathine, S,S-(+)-norpseudoephedrine]?
A: Cmax (maximal plasma concentration) [1]: 71.2 ± 13.9 ng/mL; absorbed [1]: 84 ± 6%

Q: For C[C@H](N)C(=O)c1ccccc1 [Cathinone, (S)− 2-Amino-1-phenyl-1-propanone.hydrochloride], which IC50 (CYP2A6 [2]) is on record?
A: Its IC50 is 11.5 µM.

Q: What about the Ki (CYP2A6 [2]) of the same compound?
A: Its Ki is 13.8 µM.

Q: What about the mode of inhibition (CYP2A6 [2]; CYP2A6) of the same compound?
A: The mode of inhibition was “un-competitive”.

Q: And the IC50 (CYP2B6 [3])?
A: The IC50 was 165 µM.

Q: What about the “inhibition of CYP2C8” value (CYP2C8 [4]) of the same compound?
A: Its value is “no significant inhibition”.

Q: What about the “Cmax (maximal plasma concentration)” value [1] of the same compound?
A: Its value is 58.9 ± 18.8 ng/mL.

Q: What about the absorbed [1] of the same compound?
A: The absorbed was 59 ± 21%.

Q: What about the inhibitory effects (CYP2D6) of the same compound?
A: Its inhibitory effects is “negligible inhibitory effects”.

Q: And the IC50 (CYP1A2 [5])?
A: The IC50 was 17 µM.

Q: What about the Ki (CYP1A2 [5]) of the same compound?
A: Its Ki is 57.1 µM.

Q: What about the mode of inhibition (CYP1A2 [5]; CYP1A2) of the same compound?
A: Its mode of inhibition is “competitive”.

Q: And the inhibitory effects (CYP3A4)?
A: The inhibitory effects was “negligible inhibitory effects”.

Q: And the IC50 (CYP2C19 [6])?
A: Its IC50 is 118 µM.

Q: And the IC50 (CYP2E1 [7])?
A: Its IC50 is 568 µM.

Q: And the plasma level ([8]; at 0.5 and 7.5 h after the start of khat chewing)?
A: The plasma level was “approximately 20 ng/ml”.

Q: What about the “maximum plasma levels (mean)” value ([8]; khat chewing) of the same compound?
A: The value was 83 ng/mL.

Q: And the IC50 (CYP2J2 [9])?
A: Its IC50 is 163 µM.

Q: What about the IC50 (CYP2B6 [10]) of the same compound?
A: Its IC50 is 110 µM.

Q: And the IC50 (CYP1A2 [11])?
A: Its IC50 is 75.4 µM.

Q: And the IC50 (CYP3A5 [12])?
A: Its IC50 is 11.1 µM.

Q: And the IC50 (CYP2J2 [13])?
A: The IC50 was 194 µM.

Q: What about the IC50 (CYP2A6 [14]) of the same compound?
A: The IC50 was 13.7 µM.

Q: What about the IC50 shift at 60 min (CYP2A6 [14]; human, pH 8, probe Vivid CC (3-cyanocoumarin), CYP2A6, shift > 2 = significant TDI) of the same compound?
A: The IC50 shift at 60 min was 0.84.

Q: What about the IC50 (CYP2C19 [15]) of the same compound?
A: The IC50 was 220 µM.

Q: And the IC50 (CYP2E1 [16])?
A: The IC50 was 71.3 µM.

Q: And the inhibitory effects (CYP2C9)?
A: The inhibitory effects was “negligible inhibitory effects”.

Q: What about the “time dependent inhibition (TDI) potency” value (CYP2C8 [17]) of the same compound?
A: The value was “no significant TDI potency”.

Q: What about the “area under the plasma concentration – time curve (AUC) from 0 to 9 h” value [18] of the same compound?
A: The value was 415 ± 207 ng/ml per hour.

Q: What about the “time of maximal plasma concentration” value [18] of the same compound?
A: The value was 127 ± 30 min.

Q: And the maximal plasma concentration ([18]; khat leaves equivalent to 0.8 mg cathinone/kg body weight)?
A: The maximal plasma concentration was 127 ± 53 ng/mL.

Q: What about the terminal elimination half-life ([18]; plasma) of the same compound?
A: Its terminal elimination half-life is 4.33 ± 1.7 h.

Q: What about the IC50 (CYP3A5 [19]) of the same compound?
A: The IC50 was 19.9 µM.

Q: And the Ki (CYP3A5 [19])?
A: Its Ki is 23.6 µM.

Q: What about the mode of inhibition (CYP3A5 [19]; CYP3A5) of the same compound?
A: The mode of inhibition was “noncompetitive”.
